# Source: patent US9131690B2, “Macrocyclic picolinamides as fungicides” (Dow AgroSciences LLC, priority 2012, dated 2015)
# Read-outs that look alike come from different tables or passages of the source.
# Experiments:
# [1] = tested on: Puccinia triticina. Synonym: Puccinia recondite f. sp. tritici; assay: Fungicidal activity: Wheat Brown Rust (PUCCRT), wheat plants variety Yuma; assay type: in vivo; set-up: key to PUCCRT 3DC Disease Control: A: 50-100; B: More than 0-Less than 50; C: Not Tested; D: No activity noticed in this bioassay; conditions: for pest or weed control at 100 ppm: Puccinia triticina; for PUCCRT 3DC Disease Control: 100 ppm
# Experimental: Evaluation of Fungicidal Activity: Wheat Brown Rust (Puccinia triticina. Synonym: Puccinia recondite f. sp. tritici; Bayer Code PUCCRT) Wheat plants (variety Yuma) were grown from seed in a greenhouse in 50% mineral soil/50% soil-less Metro mix until the first leaf was fully emerged, with 7-10 seedlings per pot. These plants were inoculated with an aqueous spore suspension of Puccinia recondite f. sp. tritici either prior to or after fungicide treatments. After inoculation the plants were kept in 100% relative humidity overnight to permit spores to germinate and infect the leaf. The plants were then transferred to a greenhouse set at 24 C for disease to develop.
# [2] = tested on: Mycosphaerella graminicola; Anamorph: Septoria tritici; assay: Fungicidal activity: Leaf Blotch of Wheat (SEPTTR), wheat plants variety Yuma; assay type: in vivo; conditions: Zymoseptoria tritici
# Experimental: Evaluation of Fungicidal Activity: Leaf Blotch of Wheat (Mycosphaerella graminicola; Anamorph: Septoria tritici; Bayer Code […]) Wheat plants (variety Yuma) were grown from seed in a greenhouse in 50% mineral soil/50% soil-less Metro mix until the first leaf was fully emerged, with 7-10 seedlings per pot. These plants were inoculated with an aqueous spore suspension of Septoria tritici either prior to or after fungicide treatments. After inoculation the plants were kept in 100% relative humidity (one day in a dark dew chamber followed by two to three days in a lighted dew chamber) to permit spores to germinate and infect the leaf. The plants were then transferred to a greenhouse at 20° C. for disease to develop.
# [3] = 24 h, 1 Day Protectant, read-out: PUCCRT 1DP Disease Control
# [4] = 72 h, 3 Day Curative, read-out: PUCCRT 3DC Disease Control
# [5] = 24 h, 1 Day Protectant, read-out: SEPTTR 1DP Disease Control
# [6] = 72 h, 3 Day Curative, read-out: SEPTTR 3DC Disease Control
melting point,SMILES,"pest or weed control at 100 ppm [1, 3]","pest or weed control at 100 ppm [1, 4]","pest or weed control at 100 ppm [2, 5]","pest or weed control at 100 ppm [2, 6]",PUCCRT 3DC Disease Control ([1]; 3 Day Curative)
208 to 210 °C,"COc1ccnc(C(=O)N[C@H]2COC(=O)[C@H](Cc3ccc(F)cc3)[C@@H](OC(=O)C(C)C)[C@H](C)OC2=O)c1O [Compound 1, (3S,6S,7R,8R)-8-(4-fluorobenzyl)-3-(3-hydroxy-4-methoxypicolinamido)-6-methyl-4,9-dioxo-1,5-dioxonan-7-yl isobutyrate]",50 to 100%,0 to 50%,50 to 100%,0 to 50%,
148 to 155 °C,COc1ccnc(C(=O)N[C@H]2COC(=O)[C@H](Cc3cccnc3)[C@@H](OC(=O)C(C)C)[C@H](C)OC2=O)c1O [Compound 2],50 to 100%,50 to 100%,50 to 100%,50 to 100%,
92 to 95 °C,COc1ccnc(C(=O)N[C@H]2COC(=O)[C@H](Cc3ccccn3)[C@@H](OC(=O)C(C)C)[C@H](C)OC2=O)c1O [Compound 3],50 to 100%,50 to 100%,50 to 100%,50 to 100%,
175 to 179 °C,COc1ccnc(C(=O)N[C@H]2COC(=O)[C@H](Cc3ccc(C)cc3)[C@@H](OC(=O)C(C)C)[C@H](C)OC2=O)c1O [Compound 4],50 to 100%,0 to 50%,50 to 100%,0 to 50%,
151 to 156 °C,COc1ccnc(C(=O)N[C@H]2COC(=O)[C@H](Cc3ccncc3)[C@@H](OC(=O)C(C)C)[C@H](C)OC2=O)c1O [Compound 5],50 to 100%,50 to 100%,50 to 100%,50 to 100%,
222 to 226 °C,COc1ccnc(C(=O)N[C@H]2COC(=O)[C@H](Cc3ccc(C(F)(F)F)cc3)[C@@H](OC(=O)C(C)C)[C@H](C)OC2=O)c1O [Compound 6],50 to 100%,,50 to 100%,0 to 50%,D
148 to 152 °C,COc1ccnc(C(=O)N[C@H]2COC(=O)[C@H](Cc3ccc(Cl)nc3)[C@@H](OC(=O)C(C)C)[C@H](C)OC2=O)c1O [Compound 7],50 to 100%,50 to 100%,0 to 50%,0 to 50%,
,COc1ccc(C[C@H]2C(=O)OC[C@H](NC(=O)c3nccc(OC)c3O)C(=O)O[C@@H](C)[C@@H]2OC(=O)C(C)C)cc1 [Compound 8],50 to 100%,50 to 100%,50 to 100%,0 to 50%,
,COc1ccnc(C(=O)N[C@H]2COC(=O)[C@H](Cc3ccc(F)cc3)[C@@H](OC(=O)C(C)C)[C@H](C)OC2=O)c1OCOC(=O)C(C)C [Compound 20],50 to 100%,50 to 100%,50 to 100%,50 to 100%,
,COc1ccnc(C(=O)N[C@H]2COC(=O)[C@H](Cc3ccc(F)cc3F)[C@@H](OC(=O)C(C)C)[C@H](C)OC2=O)c1OCOC(=O)C(C)C [Compound 21],50 to 100%,50 to 100%,50 to 100%,50 to 100%,
,COCC[C@H]1C(=O)OC[C@H](NC(=O)c2nccc(OC)c2OCOC(=O)C(C)C)C(=O)O[C@@H](C)[C@@H]1OC(=O)C(C)C [Compound 28],50 to 100%,50 to 100%,50 to 100%,50 to 100%,
,COc1ccnc(C(=O)N[C@H]2COC(=O)[C@H](CCOCc3ccccc3)[C@@H](OC(=O)C(C)C)[C@H](C)OC2=O)c1OCOC(=O)C(C)C [Compound 29],50 to 100%,50 to 100%,50 to 100%,0 to 50%,
,COc1ccnc(C(=O)N[C@H]2COC(=O)[C@H](CC(=O)OC(C)(C)C)[C@@H](OC(=O)C(C)C)[C@H](C)OC2=O)c1OCOC(=O)C(C)C [Compound 30],50 to 100%,50 to 100%,50 to 100%,50 to 100%,
,COc1ccnc(C(=O)N[C@H]2COC(=O)[C@H](CCc3cccnc3)[C@@H](OC(=O)C(C)C)[C@H](C)OC2=O)c1OCOC(=O)C(C)C [Compound 31],50 to 100%,0 to 50%,0 to 50%,0 to 50%,
,COc1ccnc(C(=O)N[C@H]2COC(=O)[C@H](CCc3ccccc3)[C@@H](OC(=O)C(C)C)[C@H](C)OC2=O)c1OCOC(=O)C(C)C [Compound 32],50 to 100%,50 to 100%,50 to 100%,50 to 100%,
,CCCCCCC[C@H]1C(=O)OC[C@H](NC(=O)c2nccc(OC)c2OCOC(=O)C(C)C)C(=O)O[C@@H](C)[C@@H]1OC(=O)C(C)C [Compound 33],50 to 100%,50 to 100%,50 to 100%,50 to 100%,
,CCC[C@H]1C(=O)OC[C@H](NC(=O)c2nccc(OC)c2OCOC(=O)C(C)C)C(=O)O[C@@H](C)[C@@H]1OC(=O)C(C)C [Compound 34],50 to 100%,50 to 100%,50 to 100%,50 to 100%,
,COc1ccnc(C(=O)N[C@H]2COC(=O)[C@H](CCOC(=O)C(C)C)[C@@H](OC(=O)C(C)C)[C@H](C)OC2=O)c1O [Compound 36],50 to 100%,,50 to 100%,0 to 50%,D
,COc1ccnc(C(=O)N[C@H]2COC(=O)[C@H](CCOC(=O)C(C)(C)C)[C@@H](OC(=O)C(C)C)[C@H](C)OC2=O)c1O [Compound 37],50 to 100%,0 to 50%,50 to 100%,0 to 50%,
,COc1ccnc(C(=O)N[C@H]2COC(=O)[C@H](CCOC(=O)c3cc(OC)c(OC)c(OC)c3)[C@@H](OC(=O)C(C)C)[C@H](C)OC2=O)c1O [Compound 41],50 to 100%,,0 to 50%,0 to 50%,D
,"COCC[C@H]1C(=O)OC[C@H](NC(=O)c2nccc(OC)c2O)C(=O)O[C@@H](C)[C@@H]1OC(=O)C(C)C [Compound 44, (3S,6S,7R,8R)-3-(3-hydroxy-4-methoxypicolinamido)-8-(2-methoxyethyl)-6-methyl-4,9-dioxo-1,5-dioxonan-7-yl isobutyrate]",50 to 100%,50 to 100%,50 to 100%,50 to 100%,
,COc1ccnc(C(=O)N[C@H]2COC(=O)[C@H](CCC3CCCCC3)[C@@H](OC(=O)C(C)C)[C@H](C)OC2=O)c1O [Compound 62],50 to 100%,0 to 50%,50 to 100%,0 to 50%,
